Data on eleven compounds can be found in ChEMBL document CHEMBL4673286, “Selective recognition of DNA parallel G-quadruplexes by 3,8a-disubstituted indolizinones” (Bioorg Med Chem, 2021).

One data set has as its system HT-1080. The data set is described as follows: Cytotoxicity against human HT-1080 cells assessed as reduction in cell viability at 10 uM incubated for 72 hrs by MTT assay relative to control. Format: functional.
For data set [1], the system named is Quadruplex DNA. Briefly: Binding affinity to c-myc G-quadruplex DNA (unknown origin) in PBS buffer 40 mM K+ at 5 uM by spectrofluorimetric analysis. Type of data set: nucleic-acid assay.
For data set [2], the system named is Quadruplex DNA. Briefly: Effect on c-myc G-quadruplex DNA (unknown origin) configuration in PBS buffer 40 mM K+ at 5 uM by spectropolarimeter. Type of data set: ADME, nucleic-acid assay.
For data set [3], the system named is Quadruplex DNA. Briefly: Binding affinity to c-myc G-quadruplex DNA (unknown origin) in PBS buffer (40 mM K+, pH 7.4) by spectrofluorimetric analysis. Format: nucleic-acid assay.
Another data set concerns HeLa. Briefly: Cytotoxicity against human HeLa cells assessed as reduction in cell viability at 10 uM incubated for 72 hrs by MTT assay relative to control. Type of data set: functional. On the technique in general: Tetrazolium assays rely on reduction of a dye to a coloured formazan, in cell work by metabolically active cells.
In data set [4] the test system is Quadruplex DNA. The data set is described as follows: Effect on c-myc G-quadruplex DNA (unknown origin) configuration in water at 5 uM spectropolarimeter. Format: ADME, nucleic-acid assay. The settings on record: buffer.
For the next data set, the system named is MCF7. Briefly: Cytotoxicity against human MCF7 cells assessed as reduction in cell viability at 10 uM incubated for 72 hrs by MTT assay relative to control. Type of data set: functional.
The subject of another data set is DNA. Briefly: Binding affinity to ds26 DNA sequence (unknown origin) by spectrofluorimetric analysis. Format: nucleic-acid assay.
Data set [5] is described as follows: Drug localization in nucleus of human HeLa cells at 10 uM incubated for 4 hrs by propidium iodide staining based by confocal microscopy. Type of data set: ADME.
The nature of data set [6]: Drug localization in human HeLa cells at 10 uM incubated for 4 hrs by MitoTracker Deep Red and Lyso-Tracker Red DND-99 staining based by confocal microscopy. Format: ADME, cell-based.
The nature of data set [7]: Drug localization in cytoplasm of human HeLa cells at 10 uM incubated for 4 hrs by propidium iodide staining based by confocal microscopy. Format: ADME.
Data set [8] is described as follows: Drug localization in nucleus of human HeLa cells at 10 uM incubated for 4 hrs in presence of urea by propidium iodide staining based by confocal microscopy. Format: ADME.
Data set [9] in a line: Binding affinity to TBA DNA sequence (unknown origin) by spectrofluorimetric analysis.
A short description of data set [10]: Drug localization in nucleus of human MCF7 cells at 10 uM incubated for 4 hrs in presence of urea by propidium iodide staining based by confocal microscopy. Format: ADME, cell-based. The settings on record: mcf7, 4 h.
A short description of data set [11]: Binding affinity to dx12ab DNA sequence (unknown origin) by spectrofluorimetric analysis.
Data set [12] can be described thus: Drug localization in nucleus of human MCF7 cells at 10 uM incubated for 4 hrs by propidium iodide staining based by confocal microscopy. To be noted: mcf7, 4 h. Format: ADME, cell-based.
Data set [13] in a line: Drug localization in cytoplasm of human MCF7 cells at 10 uM incubated for 4 hrs by propidium iodide staining based by confocal microscopy. To be noted: mcf7, 4 h. Type of data set: ADME, cell-based.

The structures appear in SMILES notation. Calls of active or inactive are those of the source. The rule behind the calls is not given here.

Broadly, the inhibition is the drop in the measured response relative to a control, in per cent. On to `O=C1C=C(c2ccc([N+](=O)[O-])cc2)N2C=CC=CC12c1ccccn1` (stereo not given), for which the values for the inhibition at 10 µM with HT-1080, in the data set with HeLa and in the data set on MCF7 were -4.2%, 2.9% and 12.5%, respectively. For the same compound, the outcome in the data set on Quadruplex DNA [1] was Active. The Activity result in the data set on Quadruplex DNA [2] and with Quadruplex DNA [4] was “Not Active” throughout. Besides, the K result in the data set on Quadruplex DNA [3] is “inactive”.
Regarding `O=C1C=C(c2cccnc2)N2C=CC=CC12c1ccccn1` (stereo not given), the inhibition at 10 µM amounted to 30.3% in the data set with HT-1080, 3% in the data set on HeLa and 16.5% in the data set with MCF7. In the data set on Quadruplex DNA [1], the outcome was Active. In addition, the Activity result in the data set on Quadruplex DNA [2] and in the data set on Quadruplex DNA [4] was “Not Active” in each case.
For the compound `O=C1C=C(c2ccc3ccccc3c2)N2C=CC=CC12c1ccccn1` (stereo not given), the inhibition at 10 µM was 30.4% with HT-1080, 11.1% in the data set on HeLa and 24.3% in the data set on MCF7. In addition, in the data set with Quadruplex DNA [1], the outcome was Active. Moreover, the K entry (in the data set with DNA; in data set [9]; in data set [11]) was “inactive” each time. The Drug uptake entry in data set [5], in [6], in data set [7], in data set [8], in data set [10] and in data set [12] was “Active” in each case. The Drug uptake entry in data set [13] was “Active”. Also, the Activity result with Quadruplex DNA [2] and in the data set on Quadruplex DNA [4] was “Not Active” in each case.
In the case of `O=C1C=C(c2ccccn2)N2C=CC=CC12c1ccccn1` (stereo not given), the inhibition at 10 µM worked out at 8.5% with HT-1080, 3.7% with HeLa and 7.9% in the data set on MCF7. For the same compound, the result in the data set with Quadruplex DNA [1] was Active. The Activity entry in the data set with Quadruplex DNA [2] and in the data set on Quadruplex DNA [4] was “Not Active” in each case.
`O=C1C=C(c2ccc3ccccc3c2)N2C=CC=CC12C(F)(F)F` (stereo not given): the inhibition at 10 µM in the data set with HT-1080 was 2.9%; with HeLa, -1.3%; in the data set with MCF7, -11.9%. Moreover, the result with Quadruplex DNA [1] was Active. The Activity entry in the data set with Quadruplex DNA [2] and in the data set on Quadruplex DNA [4] was “Not Active” each time.
For the compound `COc1ccc(C2=CC(=O)C3(c4ccccn4)C=CC=CN23)cc1` (stereo not given), the inhibition at 10 µM was found to be 46.1% with HT-1080, 3.2% in the data set with HeLa and 0.6% in the data set with MCF7. The outcome with Quadruplex DNA [1] was Active. Besides, the Activity entry in the data set with Quadruplex DNA [2] and in the data set with Quadruplex DNA [4] was “Not Active” throughout.
For `O=C1C=C(c2ccc(-c3ccccc3)cc2)N2C=CC=CC12c1ccccn1` (stereo not given), the inhibition at 10 µM was 32.2% in the data set on HT-1080, 5.7% in the data set with HeLa and 14.3% in the data set with MCF7. Moreover, the outcome in the data set with Quadruplex DNA [1] was Active. In addition, the Activity result in the data set on Quadruplex DNA [2] and with Quadruplex DNA [4] was “Not Active” each time.
As to `O=C1C=C(c2ccc(Cl)cc2)N2C=CC=CC12c1ccccn1` (stereo not given), the results for the inhibition at 10 µM in the data set with HT-1080, with HeLa and in the data set with MCF7 were 15.6%, 16.6% and 4.7%, respectively. In the data set on Quadruplex DNA [1], the outcome was Active. Further, the Activity entry in the data set on Quadruplex DNA [2] and in the data set on Quadruplex DNA [4] was “Not Active” each time.
As for `O=C1C=C(c2ccncc2)N2C=CC=CC12c1ccccn1` (stereo not given), the inhibition at 10 µM in the data set with HT-1080 came out at 1.8%; with HeLa, 5.9%; with MCF7 it was 19.3%. In the data set on Quadruplex DNA [1], the outcome was Active. Also, the Activity entry in the data set on Quadruplex DNA [2] and in the data set on Quadruplex DNA [4] was “Not Active” throughout.
In the case of `O=c1[nH]cc(F)c(=O)[nH]1` [FLUOROURACIL], the results for the inhibition at 10 µM in the data set on HT-1080, in the data set on HeLa and with MCF7 were 65.3%, 44% and 41.9%, respectively.
As to `O=C1C=C(c2ccccc2)N2C=CC=CC12C(F)(F)F` (stereo not given), the inhibition at 10 µM in the data set with HT-1080 is 15.9%; in the data set with HeLa, -4.7%; with MCF7, 18.7%. The result in the data set on Quadruplex DNA [1] was Active. Besides, the Activity result in the data set on Quadruplex DNA [2] and in the data set with Quadruplex DNA [4] was “Not Active” in each case. For the same compound, the K entry in the data set on Quadruplex DNA [3] is “inactive”.
